We go through 5 compounds from US7084145B2, “Triazole compounds useful in therapy” (Pfizer Inc., priority 2002, dated 2006).

Usually Ki stands for the equilibrium dissociation constant of an inhibitor or competing ligand from its target. A higher Ki goes with a looser hold on the target. For orientation: melting point means the temperature of the solid-liquid transition.

One data set has as its target T1, human V1A receptor (Homo sapiens, UniProt P37288).
T1 construct: host or cells: CHO cells (CHO-hV1A), membrane preparation
Nature of the data set: V1A filter binding assay ([3H]-AVP binding to CHO-hV1A membranes). The following applies: screen 1.0, [3H]-AVP displacement. The procedure: 1.0 V1A Filter Binding Assay
Receptor binding assays were performed on cellular membranes prepared from CHO cells stably expressing the human V1A receptor, (CHO-hV1A). The CHO-hV1A cell line was kindly provided under a licensing agreement by Marc Thibonnier, Dept. of Medicine, Case Western Reserve University School of Medicine, Cleveland, Ohio. CHO-hV1A cells were routinely maintained at 37° C. in humidified atmosphere with 5% CO2 in DMEM/Hams F12 nutrient mix supplemented with 10% fetal bovine serum, 2 mM L-glutamine, 15 mM HEPES and 400 μg/ml G418. For bulk production of cell pellets, adherent CHO-hV1A cells were grown to confluency of 90–100% in 850 cm^2 roller bottles containing a medium of DMEM/Hams F12 Nutrient Mix supplemented with 10% fetal bovine serum, 2 mM L-glutamine and 15 mM HEPES. Confluent CHO-hV1A cells were washed with phosphate-buffered saline (PBS), harvested into ice cold PBS and centrifuged at 1,000 rpm. Cell pellets were stored at −80° C. until use. Cell pellets were thawed on ice and homogenised in membrane preparation buffer consisting of 50 mM Tris-HCl, pH 7.4, 5 mM MgCl2 and supplemented with a protease inhibitor cocktail, (Roche). The cell homogenate was centrifuged at 1000 rpm, 10 min, 4° C. and the supernatant was removed and stored on ice. The remaining pellet was homogenised and centrifuged as before. The supernatants were pooled and centrifuged at 25,000×g for 30 min at 4° C. The pellet was resuspended in freezing buffer consisting of 50 mM Tris-HCl, pH 7.4, 5 mM MgCl2 and 20% glycerol and stored in small aliquots at −80° C. until use. Protein concentration was determined using Bradford reagent and BSA as a standard.
Protein linearity followed by saturation binding studies were performed on each new batch of membrane. Membrane concentration was chosen that gave specific binding on the linear portion of the curve.
Compounds were tested for their effects on [^3H]-AVP binding to CHO-hV1A membranes, (^3H-AVP; specific activity 65.5 Ci/mmol; NEN Life Sciences). Compounds were solubilised in dimethylsulfoxide (DMSO) and diluted to working concentration of 10% DMSO with assay buffer containing 50 mM Tris-HCL pH 7.4, 5 mM MgCl2 and 0.05% BSA. […] The plates were sealed and counted on a TopCount Microplate Scintillation Counter (Packard Instruments). […] The radioligand binding data was analysed using a four parameter logistic equation with the min forced to 0%. […] Specific binding was calculated by subtracting the mean NSB cpm from the mean Total cpm. […] The inhibitory dissociation constant (Ki) was calculated using the Cheng-Prusoff equation: Ki=IC50/(1+[L]/Kd) where [L] is the concentration of ligand present in the well and Kd is the dissociation constant of the radioligand obtained from Scatchard plot analysis.

T1 sequence (P37288 whole entry): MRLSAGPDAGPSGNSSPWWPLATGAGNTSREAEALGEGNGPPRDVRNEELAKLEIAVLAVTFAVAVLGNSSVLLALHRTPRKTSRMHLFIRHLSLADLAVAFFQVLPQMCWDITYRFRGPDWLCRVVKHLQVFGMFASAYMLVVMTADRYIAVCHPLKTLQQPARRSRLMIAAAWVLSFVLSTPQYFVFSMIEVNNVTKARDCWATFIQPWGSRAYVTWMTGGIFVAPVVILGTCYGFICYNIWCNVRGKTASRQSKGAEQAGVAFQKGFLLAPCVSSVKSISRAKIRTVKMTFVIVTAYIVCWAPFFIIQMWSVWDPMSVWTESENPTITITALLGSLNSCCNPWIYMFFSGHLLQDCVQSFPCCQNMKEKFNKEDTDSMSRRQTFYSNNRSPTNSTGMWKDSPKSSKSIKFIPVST

Take `c1ccc(COCc2nnc(C3CCN(c4ccccn4)CC3)n2Cc2ccccc2)cc1` [Example 17, 4-(4-Benzyl-5-benzyloxymethyl-4H-[1,2,4]triazol-3-yl)-3,4,5,6-tetrahydro-2H-[1,2′]bipyridinyl]: the inhibition constant Ki at human V1A receptor came to 4.67 nM.
As to `Cc1nnc(C2CCN(c3cnccn3)CC2)n1Cc1ccccc1` [Example 23, 2-[4-(4-Benzyl-5-methyl-4H-[1,2,4]triazol-3-yl)-piperidin-1-yl]-pyrazine], the melting point came to 191.1 °C.
Compound `c1ccc(Cn2c(CN3CCCCC3)nnc2C2CCN(c3ccccn3)CC2)cc1` [Example 24, 4-(4-Benzyl-5-piperidin-1-ylmethyl-4H-[1,2,4]triazol-3-yl)-3,4,5,6-tetrahydro-2H-[1,2′]bipyridinyl] registered a Ki on human V1A receptor of 12.1 nM.
On the same count and under the same terms, the result for `C[C@@H](c1ccccc1)n1c(CN2CCCCC2)nnc1C1CCN(c2ccccn2)CC1` [Example 25, (S)-4-[4-(1-Phenyl-ethyl)-5-piperidin-1-ylmethyl-4H-[1,2,4]triazol-3-yl]-3,4,5,6-tetrahydro-2H-[1,2′]bipyridinyl] reads 16.1 nM; that for `COC1CCN(Cc2nnc(C3CCN(c4ccccn4)CC3)n2Cc2ccccc2)CC1` [Example 26, 4-[4-Benzyl-5-(4-methoxy-piperidin-1-ylmethyl)-4H-[1,2,4]triazol-3-yl]-3,4,5,6-tetrahydro-2H-[1,2′]bipyridinyl], 4.5 nM.
